Assay: Inhibition of ADP-induced platelet aggregation in canine platelet-rich plasma

IC50	Compound
4.12 µM	CC(=O)N[C@@H](CS)C(=O)N[C@@H](CCCN=C(N)N)C(=O)NCC(=O)N[C@@H](CC(=O)O)C(=O)N[C@@H](C(N)=O)C(C)(C)S
76.6 µM	N=C(N)NCCC[C@@H]1NC(=O)[C@@H]2CCCN2C(=O)CNC(=O)[C@H]2CCCN2C(=O)[C@H](CC(=O)O)NC(=O)CNC1=O
17.7 µM	N=C(N)NCCC[C@@H]1NC(=O)[C@@H]2CCCN2C(=O)[C@@H](Cc2ccccc2)NC(=O)CNC(=O)[C@H](CC(=O)O)NC(=O)CNC1=O
5.26 µM	N=C(N)NCCC[C@@H]1NC(=O)[C@@H]2CCCN2C(=O)[C@H]2CCCN2C(=O)CNC(=O)[C@H](CC(=O)O)NC(=O)CNC1=O
1.79 µM	CC(=O)N[C@@H](CS)C(=O)N(C)[C@H](CCCN=C(N)N)C(=O)NCC(=O)N[C@@H](CC(=O)O)C(=O)N[C@H](C(N)=O)C(C)(C)S
0.09 µM	CN(C(=O)c1ccccc1S)[C@@H](CCCNC(=N)N)C(=O)NCC(=O)N[C@@H](CC(=O)O)C(=O)Nc1ccccc1S
20.3 µM	CC(=O)N[C@@H](CS)C(=O)N[C@@H](CCCNC(=N)N)C(=O)NCC(=O)N[C@@H](CC(=O)O)C(=O)N[C@H](C(N)=O)C(C)(C)S
0.355 µM	CC(=O)N[C@@H](CS)C(=O)N(C)[C@@H](CCCN=C(N)N)C(=O)NCC(=O)N[C@@H](CC(=O)O)C(=O)N[C@H](C(N)=O)C(C)(C)S
10.1 µM	C[C@H](NC(=O)[C@H](CS)NC(=O)[C@@H]1CCCN1C(=O)[C@H](CO)NC(=O)[C@H](CC(=O)O)NC(=O)CNC(=O)[C@H](CCCNC(=N)N)NC(=O)CNC(=O)[C@@H](NC(=O)CN)C(C)(C)S)C(=O)O
4.1 µM	CC(=O)N[C@@H](CS)C(=O)N[C@H](CCCN=C(N)N)C(=O)NCC(=O)N[C@@H](CC(=O)O)C(=O)N[C@H](C(N)=O)C(C)(C)S

Source: BindingDB's records for doi:10.1021/jm00099a026 (Smithkline Beecham Pharmaceuticals, 1992)
